# Reference: PMC8776995 (Frontiers in Chemistry, 2022)
# Where “and” joins values, the source holds several entries; their conditions need not be identical. Identical values can stand only once.
# Key:
# [1] = target: wild-type EGFR (Homo sapiens, UniProt P00533); experiment: EGFR kinase assay (ELISA)
# [2] = system: H460 cells; experiment: CCK-8 antiproliferation assay, H460; conditions: for Inhibitory efficacy: single repeats (Repeat 1-3), given as fraction
# [3] = system: PC-9 cells; experiment: CCK-8 antiproliferation assay, PC-9; conditions: for Inhibitory efficacy: single repeats (Repeat 1-3), given as fraction
# [4] = system: A549 cells; experiment: CCK-8 antiproliferation assay, A549; conditions: for Inhibitory efficacy: A549 cells
# Procedure: The compounds were dissolved in DMSO to make a 20 μM stock solution and diluted to the concentration of working solutions with complete growth medium before administration.
# Cells were seeded in 96-well plates: 3,000–5,000 cells/well in 100 ul. One day after seeding, the test compounds at concentration between 1.0 and 16.0 μ M or 0.1% DMSO (as control) were added to cells in triplicate. 48 h later, CCK-8 was added and incubated the plate for 1–4 h in the incubator. The absorbance at 450 nm were measured using a microplate reader (Bio-Tek).
# [5] = system: H1975 cells; experiment: CCK-8 antiproliferation assay, H1975; conditions: for Inhibitory efficacy: H1975 cells
# [6] = 8uM, given as fraction, Repeat 1-3
# [7] = 16uM, given as fraction, Repeat 1-3
# Chain of wild-type EGFR (P00533 25-1210): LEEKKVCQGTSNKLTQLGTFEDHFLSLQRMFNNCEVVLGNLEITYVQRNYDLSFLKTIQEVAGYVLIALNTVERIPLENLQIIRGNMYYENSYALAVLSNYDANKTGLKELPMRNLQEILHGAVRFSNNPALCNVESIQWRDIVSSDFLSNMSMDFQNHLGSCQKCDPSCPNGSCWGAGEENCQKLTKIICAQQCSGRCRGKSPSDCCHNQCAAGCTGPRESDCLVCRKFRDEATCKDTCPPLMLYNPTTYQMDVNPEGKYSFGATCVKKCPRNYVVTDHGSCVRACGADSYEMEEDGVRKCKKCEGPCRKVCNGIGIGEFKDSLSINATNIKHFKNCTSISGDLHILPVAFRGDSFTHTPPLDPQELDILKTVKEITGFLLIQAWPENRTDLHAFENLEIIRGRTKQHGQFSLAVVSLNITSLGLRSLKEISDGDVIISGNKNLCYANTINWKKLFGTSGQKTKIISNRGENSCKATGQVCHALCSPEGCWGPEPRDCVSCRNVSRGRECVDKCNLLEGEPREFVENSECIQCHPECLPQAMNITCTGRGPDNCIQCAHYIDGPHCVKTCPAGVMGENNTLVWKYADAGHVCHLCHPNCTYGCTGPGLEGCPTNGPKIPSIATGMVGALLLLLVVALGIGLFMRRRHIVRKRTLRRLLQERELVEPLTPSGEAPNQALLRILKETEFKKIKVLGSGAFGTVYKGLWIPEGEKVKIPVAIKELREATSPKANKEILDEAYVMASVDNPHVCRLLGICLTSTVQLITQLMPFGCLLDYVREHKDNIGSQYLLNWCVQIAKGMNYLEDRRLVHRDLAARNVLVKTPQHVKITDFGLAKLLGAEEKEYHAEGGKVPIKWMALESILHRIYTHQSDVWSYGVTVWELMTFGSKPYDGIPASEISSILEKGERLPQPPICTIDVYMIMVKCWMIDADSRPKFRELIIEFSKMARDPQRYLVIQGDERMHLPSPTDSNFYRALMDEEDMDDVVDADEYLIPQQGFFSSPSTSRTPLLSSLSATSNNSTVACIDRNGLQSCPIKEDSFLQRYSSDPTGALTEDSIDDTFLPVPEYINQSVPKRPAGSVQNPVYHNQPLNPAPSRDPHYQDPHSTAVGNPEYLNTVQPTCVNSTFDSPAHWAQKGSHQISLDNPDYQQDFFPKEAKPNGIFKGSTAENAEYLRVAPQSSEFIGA
structure (smiles),measurement,setting,value
"COCCOc1cc2ncnc(Nc3cccc(-c4cn(-c5ccccc5Cl)nn4)c3)c2cc1OCCOC [e8, [6,7-Bis-(2-methoxy-ethoxy)-quinazolin-4-yl]-{3-[1-(2-chloro-phenyl)-1H-[1,2,3]triazol-4-yl]-phenyl}-amine]",inhibition at 0.0003 µM,"[1]; 0.3 nM, duplicate wells, calculated from A450",14.4%
same,Inhibition,"[1]; 0.3 nM, duplicate wells, calculated from A450, 0.0003 µM",7.895
same,inhibition at 0.003 µM,"[1]; 3 nM, duplicate wells, calculated from A450",15.7%
same,Inhibition,"[1]; 3 nM, duplicate wells, calculated from A450, 0.003 µM",18.5965
same,inhibition at 0.03 µM,"[1]; 30 nM, duplicate wells, calculated from A450",17.9%
same,Inhibition,"[1]; 30 nM, duplicate wells, calculated from A450, 0.03 µM",21.4035
same,inhibition at 0.3 µM,"[1]; 300 nM, duplicate wells, calculated from A450",28.8%
same,Inhibition,"[1]; 300 nM, duplicate wells, calculated from A450, 0.3 µM",23.1579
same,inhibition at 3 µM,"[1]; 3000 nM, duplicate wells, calculated from A450",43%
same,Inhibition,"[1]; 3000 nM, duplicate wells, calculated from A450, 3 µM",40.5263
same,inhibition at 30 µM,"[1]; 30000 nM, duplicate wells, calculated from A450",91%
same,Inhibition,"[1]; 30000 nM, duplicate wells, calculated from A450, 30 µM",89.8246
same,IC50,"[1]; IC50 (μM) EGFR, ELISA, 3 μmol/L ATP",1.99 µM
same,Inhibitory efficacy,"[2]; H460, 1uM, 1 µM",0.1177 and 0.197
same,Inhibitory efficacy,"[2]; H460, 2uM, 2 µM",0.3433 and 0.3114
same,Inhibitory efficacy,"[2]; H460, 4uM, 4 µM",0.6025 and 0.5869
same,Inhibitory efficacy,"[2]; H460, 8uM, 8 µM",0.6548 and 0.6973
same,Inhibitory efficacy,"[2]; H460, 16uM, 16 µM",0.6875 and 0.7414
same,IC50,"[2]; Homo sapiens, NCI-H460, 48 h, read-out: IC50 (μM) H460, CCK-8, 48 h, average ± SD of three independent experiments",4.18 ± 0.49 µM
same,inhibition at 1 µM,"[2]; Homo sapiens, NCI-H460, read-out: Inhibitory efficacy, H460, 1uM, single repeats (Repeat 1-3), given as fraction",14.2%
same,inhibition at 2 µM,"[2]; Homo sapiens, NCI-H460, read-out: Inhibitory efficacy, H460, 2uM, single repeats (Repeat 1-3), given as fraction",35.8%
same,inhibition at 4 µM,"[2]; Homo sapiens, NCI-H460, read-out: Inhibitory efficacy, H460, 4uM, single repeats (Repeat 1-3), given as fraction",48.3%
same,inhibition at 8 µM,"[2]; Homo sapiens, NCI-H460, read-out: Inhibitory efficacy, H460, 8uM, single repeats (Repeat 1-3), given as fraction",66.5%
same,inhibition at 16 µM,"[2]; Homo sapiens, NCI-H460, read-out: Inhibitory efficacy, H460, 16uM, single repeats (Repeat 1-3), given as fraction",66.8%
same,melting point,,131 to 134 °C
same,IC50,"[3]; Homo sapiens, PC-9, 48 h, read-out: IC50 (μM) PC-9",> 100 µM
same,inhibition at 4 µM,"[3]; Homo sapiens, PC-9, read-out: Inhibitory efficacy, PC-9, 4uM, single repeats (Repeat 1-3), given as fraction",17.4%
same,inhibition at 8 µM,"[3]; Homo sapiens, PC-9, read-out: Inhibitory efficacy, PC-9, 8uM, single repeats (Repeat 1-3), given as fraction",26.3%
same,inhibition at 16 µM,"[3]; Homo sapiens, PC-9, read-out: Inhibitory efficacy, PC-9, 16uM, single repeats (Repeat 1-3), given as fraction",13.4%
same,Inhibitory efficacy,"[3]; PC-9, 4uM, 4 µM",0.2895 and 0.3075
same,Inhibitory efficacy,"[3]; PC-9, 8uM, 8 µM",0.1686 and 0.3213
same,Inhibitory efficacy,"[3]; PC-9, 16uM, 16 µM",0.1771 and 0.2089
same,Inhibitory efficacy,[4]; [6],0.2217 and 0.2238
same,Inhibitory efficacy,[4]; [7],0.3678 and 0.3836
same,IC50,"[4]; Homo sapiens, A549, 48 h, read-out: IC50 (μM) A549, CCK-8, 48 h, average ± SD of three independent experiments",23 ± 0.75 µM
same,inhibition at 8 µM,"[4]; Homo sapiens, A549, read-out: Inhibitory efficacy, A549 cells, 8uM, given as fraction, Repeat 1-3",18.4%
same,inhibition at 16 µM,"[4]; Homo sapiens, A549, read-out: Inhibitory efficacy, A549 cells, 16uM, given as fraction, Repeat 1-3",42.9%
same,Inhibitory efficacy,"[5]; 1uM, given as fraction, Repeat 1-3",0.1767 and 0.1612
same,Inhibitory efficacy,"[5]; 2uM, given as fraction, Repeat 1-3",0.1999 and 0.1391
same,Inhibitory efficacy,"[5]; 4uM, given as fraction, Repeat 1-3",0.3925 and 0.388
same,Inhibitory efficacy,[5]; [6],0.5795 and 0.574
same,Inhibitory efficacy,[5]; [7],0.6879 and 0.6171
same,IC50,"[5]; Homo sapiens, NCI-H1975, 48 h, read-out: IC50 (μM) H1975, CCK-8, 48 h, average ± SD of three independent experiments",7.19 ± 0.68 µM
same,inhibition at 1 µM,"[5]; Homo sapiens, NCI-H1975, read-out: Inhibitory efficacy, H1975 cells, 1uM, given as fraction, Repeat 1-3",16.1%
same,inhibition at 2 µM,"[5]; Homo sapiens, NCI-H1975, read-out: Inhibitory efficacy, H1975 cells, 2uM, given as fraction, Repeat 1-3",19.8%
same,inhibition at 4 µM,"[5]; Homo sapiens, NCI-H1975, read-out: Inhibitory efficacy, H1975 cells, 4uM, given as fraction, Repeat 1-3",39.9%
same,inhibition at 8 µM,"[5]; Homo sapiens, NCI-H1975, read-out: Inhibitory efficacy, H1975 cells, 8uM, given as fraction, Repeat 1-3",51.1%
same,inhibition at 16 µM,"[5]; Homo sapiens, NCI-H1975, read-out: Inhibitory efficacy, H1975 cells, 16uM, given as fraction, Repeat 1-3",64.1%
